{"source": "ChEMBL document CHEMBL1127634", "about": "“Calculation of relative differences in the binding free energies of HIV1 protease inhibitors: a thermodynamic cycle perturbation approach” (J Med Chem, 1994)", "target": "Human immunodeficiency virus type 1 protease (Human immunodeficiency virus 1, UniProt Q72874)", "test": "Binding affinity against HIV -1 protease", "note": "pKi: −log10 of the molar value."}
{"compound": "C[C@H](N)C(=O)N[C@@H](C)C(=O)N[C@@H](Cc1ccccc1)[C@@H](O)CCC(=O)NC(c1ccccc1)c1nc2ccccc2[nH]1", "note": "(stereo not given in full)", "values": [{"measurement": "pKi", "value": 5.27}]}
{"compound": "O=C(CC[C@H](O)[C@H](Cc1ccccc1)NC(=O)CC(NC(=O)c1ccc2ccccc2n1)C(=O)O)NC(c1cccc(C(F)(F)F)c1)c1cc2ccccc2[nH]1", "note": "(stereo not given in full)", "values": [{"measurement": "pKi", "value": 7.48}]}
{"compound": "C[C@H](N)C(=O)N[C@@H](C)C(=O)N[C@@H](Cc1ccccc1)[C@@H](O)CCC(=O)NC(c1ccccc1)c1cc2ccccc2[nH]1", "note": "(stereo not given in full)", "values": [{"measurement": "pKi", "value": 7.37}]}
{"compound": "O=C(CC[C@H](O)[C@H](Cc1ccccc1)NC(=O)CC(NC(=O)c1ccc2ccccc2n1)C(=O)O)NC(c1ccccc1)c1cc2ccccc2[nH]1", "note": "(stereo not given in full)", "values": [{"measurement": "pKi", "value": 6.70}]}
{"compound": "Cc1cccc(C(NC(=O)CC[C@H](O)[C@H](Cc2ccccc2)NC(=O)CC(NC(=O)c2ccc3ccccc3n2)C(=O)O)c2cc3ccccc3[nH]2)c1", "note": "(stereo not given in full)", "values": [{"measurement": "pKi", "value": 7.41}]}
